Molecules are shown by their SMILES. Values joined by “and” are separate entries in the source; they are usually repeats but may differ in a detail not shown here. Equal values may be shown once.

The record followed here is ChEMBL document CHEMBL1128526, “Conformational effects on retinoid receptor selectivity. 2. Effects of retinoid bridging group on retinoid X receptor activity and selectivity” (J Med Chem, 1995).

Assay [1] concerns the target T1, Retinoic acid receptor RXR-gamma (Homo sapiens, UniProt P48443).
T1 sequence (P48443 whole entry): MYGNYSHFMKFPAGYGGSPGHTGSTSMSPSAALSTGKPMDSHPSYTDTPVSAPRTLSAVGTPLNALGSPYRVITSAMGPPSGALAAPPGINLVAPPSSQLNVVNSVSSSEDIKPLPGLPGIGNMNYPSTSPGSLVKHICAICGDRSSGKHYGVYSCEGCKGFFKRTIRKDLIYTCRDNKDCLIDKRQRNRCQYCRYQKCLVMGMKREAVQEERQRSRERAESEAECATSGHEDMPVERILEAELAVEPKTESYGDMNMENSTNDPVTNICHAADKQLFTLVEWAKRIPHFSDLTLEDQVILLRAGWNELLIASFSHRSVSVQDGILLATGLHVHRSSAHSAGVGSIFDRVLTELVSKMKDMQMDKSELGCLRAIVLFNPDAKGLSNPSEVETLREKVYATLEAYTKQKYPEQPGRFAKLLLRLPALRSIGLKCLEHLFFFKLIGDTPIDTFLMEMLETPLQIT
Kind of assay: Effective concentrations against Retinoic acid receptor RXR-gamma.

Assay [2] has as its target T2, Retinoic acid receptor RXR-beta (Homo sapiens, UniProt P28702).
T2 sequence (P28702 whole entry): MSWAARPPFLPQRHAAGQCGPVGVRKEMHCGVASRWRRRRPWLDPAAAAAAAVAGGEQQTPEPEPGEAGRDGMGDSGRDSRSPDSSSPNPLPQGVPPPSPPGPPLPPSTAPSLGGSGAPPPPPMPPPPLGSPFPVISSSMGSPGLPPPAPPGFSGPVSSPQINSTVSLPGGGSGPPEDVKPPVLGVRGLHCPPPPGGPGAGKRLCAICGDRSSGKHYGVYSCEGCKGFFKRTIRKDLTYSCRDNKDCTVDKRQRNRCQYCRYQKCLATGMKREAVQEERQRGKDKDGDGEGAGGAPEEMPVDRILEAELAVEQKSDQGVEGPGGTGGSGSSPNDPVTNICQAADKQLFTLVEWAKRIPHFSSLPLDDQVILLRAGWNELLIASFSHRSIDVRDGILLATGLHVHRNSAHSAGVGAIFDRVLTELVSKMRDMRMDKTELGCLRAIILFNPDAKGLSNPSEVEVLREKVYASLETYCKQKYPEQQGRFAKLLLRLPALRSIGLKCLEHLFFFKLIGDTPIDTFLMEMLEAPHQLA
The experiment in a line: Effective concentrations against Retinoid X receptor RXR beta.

Assay [3] concerns the target T3, Retinoic acid receptor RXR-alpha (Homo sapiens, UniProt P19793).
T3 sequence (P19793 whole entry): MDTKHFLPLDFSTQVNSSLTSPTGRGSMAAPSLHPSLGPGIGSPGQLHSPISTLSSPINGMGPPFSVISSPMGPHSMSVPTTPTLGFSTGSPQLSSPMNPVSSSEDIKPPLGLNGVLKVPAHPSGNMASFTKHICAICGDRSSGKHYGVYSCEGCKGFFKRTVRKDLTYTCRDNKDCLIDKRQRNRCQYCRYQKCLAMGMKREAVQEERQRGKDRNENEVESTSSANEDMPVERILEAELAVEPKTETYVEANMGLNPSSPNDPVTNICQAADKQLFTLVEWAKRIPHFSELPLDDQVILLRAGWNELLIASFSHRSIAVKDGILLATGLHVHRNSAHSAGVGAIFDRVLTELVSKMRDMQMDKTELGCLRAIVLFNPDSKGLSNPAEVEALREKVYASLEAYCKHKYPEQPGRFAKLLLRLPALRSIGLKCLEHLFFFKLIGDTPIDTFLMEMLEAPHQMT
The experiment in a line: Effective concentration against Retinoic acid receptor RXR-alpha.

Assay [4] concerns the target T2, Retinoic acid receptor RXR-beta. Kind of assay: Effective concentrations against Retinoic acid receptor RXR-beta.

One may read the EC50 as the concentration giving half of the maximal effect. High values mean a need for much substance, low ones an effect from little substance. Regarding `CC(/C=C/C1(c2cc3c(cc2C)C(C)(C)CCC3(C)C)OCCO1)=C\C(=O)O`, the 50% effective concentration (EC50) in assay [1] came out at 2300 nM; in assay [2], 47 nM; in assay [3], 21 nM.

As for `C=C(c1ccc(C(=O)O)s1)c1cc2c(cc1C)C(C)(C)CCC2(C)C`, the EC50 in assay [1] was found to be 520 nM; in assay [4] it was 33 nM; in assay [3] it was 330 nM.

In turn, `CC1(C)CCC(C)(C)c2cc(C3(c4ccc(C(=O)O)cc4)OCCO3)ccc21` gave an EC50 in assay [3] of 34 nM.

In the case of `CC1(C)CCC(C)(C)c2cc(C3(c4ccc(C(=O)O)cc4)SCCCS3)ccc21`, the 50% effective concentration (EC50) in assay [3] was 630 nM and 540 nM.

Regarding `CC1(C)CCC(C)(C)c2cc(C3(c4ccc(C(=O)O)cc4)OCCCO3)ccc21`, the concentration giving a half-maximal response (EC50) in assay [3] was 750 nM and 1200 nM.

In turn, `CC1(C)CCC(C)(C)c2cc(C3(c4ccc(C(=O)O)cc4)OCCS3)ccc21` (configuration not stated) yielded an EC50 in assay [3] of 74 nM.

`CC1(C)CCC(C)(C)c2cc(C(C)(C)c3ccc(C(=O)O)cc3)ccc21`: the response in assay [3] was half-maximal at 3100 nM (EC50).

For the molecule `CC1(C)CCC(C)(C)c2cc(Cc3ccc(C(=O)O)cc3)ccc21`, the values for the EC50 in assay [1], in assay [4] and in assay [3] were 2000 nM, 2700 nM and 2500 nM, respectively.

Turning to `Cc1cc2c(cc1C(=O)c1ccc(C(=O)O)s1)C(C)(C)CCC2(C)C`, the figures for the EC50 in assay [1], in assay [4] and in assay [3] were 300 nM, 1000 nM and 2200 nM, respectively.

For `C/C=C(/c1ccc(C(=O)O)cc1)c1ccc2c(c1)C(C)(C)CCC2(C)C`, the 50% effective concentration (EC50) in assay [1] is 370 nM; in assay [4] it was 160 nM; in assay [3], 55 nM and 470 nM.

Molecule `CC(C)=C(/C=C/C(C)=C/C(=O)O)c1cc2c(cc1C)C(C)(C)CCC2(C)C` came in with an EC50 in assay [3] of 200 nM.

`CC1(C)CCC(C)(C)c2cc(C(O)c3ccc(C(=O)O)cc3)ccc21` (configuration not stated) registered a concentration giving a half-maximal response (EC50) in assay [3] of 2900 nM.

`CC(c1ccc(C(=O)O)cc1)c1ccc2c(c1)C(C)(C)CCC2(C)C` (configuration not stated) displayed a concentration for a half-maximal effect (EC50) in assay [3] of 300 nM.

In the case of `CC1(C)CCC(C)(C)c2cc(Oc3ccc(C(=O)O)cc3)ccc21`, the concentration for a half-maximal effect (EC50) is 530 nM in assay [1], 1900 nM in assay [4] and 2500 nM in assay [3].

Molecule `CC(C)=C(c1ccc(C(=O)O)cc1)c1ccc2c(c1)C(C)(C)CCC2(C)C` returned a half-maximal effective concentration (EC50) in assay [3] of 86 nM.

Take `CC1(C)CCC(C)(C)c2cc(C3(c4ccc(C(=O)O)cc4)SCCS3)ccc21`: in assay [3], the 50% effective concentration (EC50) was 170 nM.

`C/C=C(\c1ccc(C(=O)O)cc1)c1ccc2c(c1)C(C)(C)CCC2(C)C` came in with a half-maximal effective concentration (EC50) in assay [3] of 2500 nM.

For `CC1(C)CCC(C)(C)c2cc(C3(c4ccc(C(=O)O)cc4)CC3)ccc21`, the response in assay [3] was half-maximal at 55 nM (EC50).

`CC(C)=C(/C=C/C(C)=C/C(=O)O)c1ccc2c(c1)C(C)(C)CCC2(C)C`: in assay [3], the EC50 worked out at 380 nM.

In assay [3], `C=C(c1ccc(C(=O)O)cc1)c1ccc2c(c1)C(C)(C)CCC2(C)C` registered an EC50 of 270 nM.
